Results on 20 compounds are retold here after patent publication US8124637B2, “Anthra [1, 2-d]imidazole-6,11-dione derivatives, preparation method and application thereof” (National Defense Medical Center, priority 2010, dated 2012).

Where only a bound is given, the exact number is not on record here.

The nature of data set [1]: MTT assay (relative cell survival), H1299. The following applies: human, H1299 non-small cell lung cancer cells (PhTERT-SEAP), Relative MTT viability (%). A general note: Formazan colour is commonly taken as a measure of viable cells.
The test system of data set [2] is hTERT promoter (PhTERT) expression. Put plainly: SEAP assay (PhTERT-SEAP reporter, H1299). The format is cell-based, human. The note with it: Homo sapiens, NCI-H1299, PhTERT-SEAP (H1299); for activity at 1 µM: read-out: Relative SEAP activity (%); for activity at 10 µM / activity at 100 µM: read-out: Relative SEAP activity (%) (converted). The procedure:
H1299 were grown in RPMI 1640 media supplemented with 10% fetal bovine serum, 100 units/mL penicillin and […] streptomycin in a humidified atmosphere with 5% CO2 at 37° C. Culture media were changed every three days. To establish stable cell lines that the expression of hTERT could be monitored by a reporter system, a about 3.3 kbp DNA fragment ranging from −3338 to +1 bp of the hTERT gene (hTERT promoter, PhTERT) was subcloned upstream to a secreted alkaline phosphatase gene (SEAP) and transfected into H1299 bp electroporation. The stable clones were selected using G418. The stable clones derived from H1299 were cultured using conditions that are similar to their parental cells.
Secreted alkaline phosphatase was used as the reporter system to monitor the transcriptional activity of hTERT. Here, about 10^4 cells each were grown in 96-well plates and incubated at 37° C. for 24 hours and changed with fresh media. Varying amounts of drugs were added and cells were incubated for another 24 hours. Culture media were collected and heated at 65° C. for 10 min to inactivate heat-labile phosphatases. An equal amount of SEAP buffer (2 M diethanolamine, 1 mM MgCl2, and 20 mM L-homoarginine) was added to the media and p-nitrophenyl phosphate was added to a final concentration of 12 mM. Absorptions at 405 nm were taken, and the rate of absorption increase is determined (the increasing rate of absorbance at 405 nm was used to represent the activity of SEAP).

As to `O=C1c2ccccc2C(=O)c2c1ccc1nc(CNCc3ccc4c(c3)OCO4)[nH]c21` [CL15, 2-((piperonylamino)methyl)-1H-anthra[1,2-d]imidazole-6,11-dione], in data set [1], the viability at 72 h, 1 µM was determined as 109 ± 2.02%; the viability at 72 h, 10 µM is 103%; the viability at 72 h, 100 µM was 14.2%. Moreover, in data set [2], the activity at 1 µM was found to be 74.5 ± 14.3%, the activity at 10 µM is 74.6 ± 17.4% and the activity at 100 µM is 1.32%.
As for `N#Cc1ccccc1N1CCN(Cc2nc3ccc4c(c3[nH]2)C(=O)c2ccccc2C4=O)CC1` [CL31, 2-((4-(2-cyanophenyl)piperazin-1-yl)methyl)-1H-anthra[1,2-d]imidazole-6,11-dione], in data set [1], the viability at 72 h, 1 µM worked out at 78.3 ± 5.02%; the viability at 72 h, 10 µM is 61.7%; the viability at 72 h, 100 µM was 21.6%. In data set [2], the activity at 1 µM was 106 ± 4.67%, the activity at 10 µM is 56.7% and the activity at 100 µM is 5.59%.
With `CCCN(C)Cc1nc2ccc3c(c2[nH]1)C(=O)c1ccccc1C3=O` [CL05, 2-((methylpropylamino)methyl)-1H-anthra[1,2-d]imidazole-6,11-dione], in data set [1], the viability at 72 h, 1 µM stood at 93.5 ± 7.25%. In data set [2], the activity at 1 µM amounted to 96 ± 6.58%, the activity at 10 µM is < 50% and the activity at 100 µM was -0.38%.
As for `O=C1c2ccccc2C(=O)c2c1ccc1nc(CN3CCOCC3)[nH]c21` [CL21, 2-(morpholinomethyl)-1H-anthra[1,2-d]imidazole-6,11-dione], in data set [1], the viability at 72 h, 1 µM came out at 89.8 ± 2.58%; the viability at 72 h, 10 µM was 70.8%; the viability at 72 h, 100 µM was 13.4%. For the same compound, in data set [2], the activity at 1 µM turned out to be 102 ± 4.81%, the activity at 10 µM was 97.3% and the activity at 100 µM was 25.6%.
Turning to `CN(C)Cc1nc2ccc3c(c2[nH]1)C(=O)c1ccccc1C3=O` [CL02, 2-((dimethylamino)methyl)-1H-anthra[1,2-d]imidazole-6,11-dione], in data set [1], the viability at 72 h, 1 µM is 98.9 ± 6.37% and the viability at 72 h, 10 µM was > 50%. Also, in data set [2], the activity at 1 µM came out at 83.6 ± 8.52%, the activity at 10 µM is < 50% and the activity at 100 µM is -2.26%.
Take `CCN(C)Cc1nc2ccc3c(c2[nH]1)C(=O)c1ccccc1C3=O` [CL03, 2-((ethylmethylamino)methyl)-1H-anthra[1,2-d]imidazole-6,11-dione]: in data set [1], the viability at 72 h, 1 µM worked out at 98.9 ± 3.64% and the viability at 72 h, 10 µM is > 50%. In data set [2], the activity at 1 µM is 97.1 ± 12%, the activity at 10 µM was < 50% and the activity at 100 µM was -2.69%.
`O=C1c2ccccc2C(=O)c2c1ccc1nc(CN(Cc3ccccn3)Cc3ccccn3)[nH]c21` [CL10, 2-((di-(2-picolyl)amino)methyl)-1H-anthra[1,2-d]imidazole-6,11-dione]: in data set [1], the viability at 72 h, 1 µM amounted to 101 ± 5.98%. Further, in data set [2], the activity at 1 µM turned out to be 86.5 ± 3.63%, the activity at 10 µM is -6.44% and the activity at 100 µM is -7.58%.
For `CN1CCN(CCc2nc3ccc4c(c3[nH]2)C(=O)c2ccccc2C4=O)CC1` [CL36, 2-(2-(4-methylpiperazin-1-yl)ethyl)-1H-anthra[1,2-d]imidazole-6,11-dione], in data set [1], the viability at 72 h, 1 µM turned out to be 87.2 ± 6.98% and the viability at 72 h, 10 µM is < 50%. For the same compound, in data set [2], the activity at 1 µM turned out to be 73.9 ± 3.2%, the activity at 10 µM is 7.1% and the activity at 100 µM is -3.06%.
As to `O=C1c2ccccc2C(=O)c2c1ccc1nc(CCN3CCN(c4ncccn4)CC3)[nH]c21` [CL39, 2-(2-(4-(pyrimidin-2-yl)piperazin-1-yl)ethyl)-1H-anthra[1,2-d]imidazole-6,11-dione], the viability at 72 h, 1 µM in data set [1] turned out to be 90.7 ± 5.81%. Further, in data set [2], the activity at 1 µM is 83 ± 3.61%, the activity at 10 µM is < 50% and the activity at 100 µM was -8.09%.
In the case of `O=C1c2ccccc2C(=O)c2c1ccc1nc(CNCc3ccc(C(F)(F)F)cc3)[nH]c21` [CL14, 2-((4-(trifluoromethyl)benzylamino)methyl)-1H-anthra[1,2-d]imidazole-6,11-dione], in data set [1], the viability at 72 h, 1 µM is 74.3 ± 4.04% and the viability at 72 h, 10 µM is 10.6%. In addition, in data set [2], the activity at 1 µM was found to be 51.6 ± 0.68%, the activity at 10 µM was 78.5% and the activity at 100 µM is 2.56%.
`O=C1c2ccccc2C(=O)c2c1ccc1nc(CN3CCN(c4ncccn4)CC3)[nH]c21` [CL29, 2-((4-(pyrimidin-2-yl)piperazin-1-yl)methyl)-1H-anthra[1,2-d]imidazole-6,11-dione]: in data set [1], the viability at 72 h, 1 µM was 85.5 ± 3.17%; the viability at 72 h, 10 µM is 73.7%; the viability at 72 h, 100 µM is 28.2%. For the same compound, in data set [2], the activity at 1 µM was found to be 111 ± 3.55%, the activity at 10 µM was 92.2% and the activity at 100 µM is 19.4%.
`O=C1c2ccccc2C(=O)c2c1ccc1nc(CNCc3ccccc3C(F)(F)F)[nH]c21` [CL12, 2-((2-(trifluoromethyl)benzylamino)methyl)-1H-anthra[1,2-d]imidazole-6,11-dione]: in data set [1], the viability at 72 h, 1 µM was found to be 98.5 ± 5.49%; the viability at 72 h, 10 µM was 96.3%; the viability at 72 h, 100 µM was 6.32%. Also, in data set [2], the activity at 1 µM came to 87.3 ± 3.26%, the activity at 10 µM was 81.2% and the activity at 100 µM is -1.71%.
In the case of `O=C1c2ccccc2C(=O)c2c1ccc1nc(CCN3CCN(Cc4ccccc4)CC3)[nH]c21` [CL40, 2-(2-(4-benzylpiperazin-1-yl)ethyl)-1H-anthra[1,2-d]imidazole-6,11-dione], in data set [1], the viability at 72 h, 1 µM came out at 95.6 ± 8.22%; the viability at 72 h, 10 µM was > 50%; the viability at 72 h, 100 µM is 6.65%. Further, in data set [2], the activity at 1 µM turned out to be 73 ± 8.24% and the activity at 100 µM is -7.29 ± 0.0949%.
Regarding `O=C(CCCl)Nc1ccc2c(c1NC(=O)CCCl)C(=O)c1ccccc1C2=O` [CL34, 1,2-bis(3-chloropropionamido)anthraquinone], in data set [1], the viability at 72 h, 1 µM is 94.1 ± 3.21%; the viability at 72 h, 10 µM was < 50%; the viability at 72 h, 100 µM was determined as 5.85 ± 2.1%. Moreover, in data set [2], the activity at 1 µM worked out at 87.4 ± 4.51%, the activity at 10 µM was 12.5 ± 4.35% and the activity at 100 µM is -2.74 ± 0.61%.
`O=C1c2ccccc2C(=O)c2c1ccc1nc(CN3CCCCCC3)[nH]c21` [CL18, 2-((azepan-1-yl)methyl)-1H-anthra[1,2-d]imidazole-6,11-dione]: in data set [1], the viability at 72 h, 1 µM was determined as 104 ± 6.82% and the viability at 72 h, 10 µM is 85.1%. Moreover, in data set [2], the activity at 1 µM came out at 107 ± 5.16%, the activity at 10 µM was 66.5% and the activity at 100 µM was 3.79%.
`O=C1c2ccccc2C(=O)c2c1ccc1nc(CN3CCC4(CC3)OCCO4)[nH]c21` [CL19, 2-((1,4-dioxa-8-azaspiro[4.5]decane-8-yl)methyl)-1H-anthra[1,2-d]imidazole-6,11-dione]: in data set [1], the viability at 72 h, 1 µM is 103 ± 2.09%; the viability at 72 h, 10 µM is 79.2%; the viability at 72 h, 100 µM was 14.8%. Besides, in data set [2], the activity at 1 µM amounted to 97 ± 1.84%, the activity at 10 µM is 95.5% and the activity at 100 µM was 14.1%.
With `CN(Cc1nc2ccc3c(c2[nH]1)C(=O)c1ccccc1C3=O)CC1OCCO1` [CL08, 2-(((1,3-dioxolan-2-yl)-N-methylmethanamino)methyl)-1H-anthra[1,2-d]imidazole-6,11-dione], in data set [1], the viability at 72 h, 1 µM was 104 ± 3.91%; the viability at 72 h, 10 µM is 89.8%; the viability at 72 h, 100 µM is 28.3%. In addition, in data set [2], the activity at 1 µM amounted to 90.4 ± 2.87%, the activity at 10 µM was 68.7% and the activity at 100 µM was 6.78%.
For the compound `O=C1c2ccccc2C(=O)c2c1ccc1nc(CN3CCN(Cc4ccccc4)CC3)[nH]c21` [CL33, 2-((4-benzylpiperazin-1-yl)methyl)-1H-anthra[1,2-d]imidazole-6,11-dione], in data set [1], the viability at 72 h, 1 µM amounted to 92.6 ± 1.56%; the viability at 72 h, 10 µM is > 50%; the viability at 72 h, 100 µM was 12.7%. Moreover, in data set [2], the activity at 1 µM was found to be 97.8 ± 7.2% and the activity at 100 µM is -2.7%.
Consider `C=CCN1CCN(Cc2nc3ccc4c(c3[nH]2)C(=O)c2ccccc2C4=O)CC1` [CL26, 2-((4-allylpiperazin-1-yl)methyl)-1H-anthra[1,2-d]imidazole-6,11-dione], for which, in data set [1], the viability at 72 h, 1 µM amounted to 86 ± 3.37% and the viability at 72 h, 10 µM is 44.8%. In addition, in data set [2], the activity at 1 µM came out at 87.2 ± 1.82%, the activity at 10 µM is 16.7% and the activity at 100 µM is -6.77%.
In the case of `COc1cccc(CN(C)Cc2nc3ccc4c(c3[nH]2)C(=O)c2ccccc2C4=O)c1` [CL09, 2-((3-methoxy-N-methybenzylamino)methyl)-1H-anthra[1,2-d]imidazole-6,11-dione], in data set [1], the viability at 72 h, 1 µM came to 96.6 ± 5.02%; the viability at 72 h, 10 µM stood at 97.6%; the viability at 72 h, 100 µM was 9.24%. Moreover, in data set [2], the activity at 1 µM was 105 ± 3.38%, the activity at 10 µM is 78.1% and the activity at 100 µM is -3.01%.

A word on the viability: it is a read-out of living cells in per cent, often relative to untreated cells.
